Laboratory results published in article PMC9541285, “Drug‐dependent inhibition of nucleotide hydrolysis in the heterodimeric ABC multidrug transporter PatAB from Streptococcus pneumoniae” (The Febs Journal, 2022).

Legend:
PatAB (PatA^WTB^WT) [1] = molecular target: T1, PatAB (PatA^WTB^WT) (Streptococcus pneumoniae, UniProt A0ACD7PU88+Q8DN70); test: ATPase inhibition, malachite green Pi assay; type: biochemical
T1 construct: gene ABC-NP; full length; N-terminal His6-PatA and C-terminal PatB-His10, tags kept; coexpressed in Lactococcus lactis NZ9000 ΔlmrA ΔlmrCD

PatAB (PatA^WTB^WT) [2] = molecular target: T2, PatAB (PatA^WTB^WT) (Streptococcus pneumoniae, UniProt A0ACD7PU88+Q8DN70, Q8DN70:Q521A); test: biochemical
T2 construct: gene ABC-NP
Text: ATPase inhibition, malachite green Pi assay on PatAB (PatA^WTB^WT)

PatAB (PatA^WTB^WT) [3] = molecular target: T1, PatAB (PatA^WTB^WT); test: fluorescence anisotropy titration; type: binding
PatAB (PatA^WTB^WT) [4] = molecular target: T1, PatAB (PatA^WTB^WT); test: competition with EMA photolabelling, in-gel fluorescence; type: binding; conditions: 20-fold excess over EMA, membrane vesicles; also transported substrate (efflux from L. lactis cells)
[5] = tested on: Nc1nc2c(ncn2[C@@H]2O[C@H](COP(=O)(O)OP(=O)(O)OP(=O)(O)O)[C@@H](O)[C@H]2O)c(=O)[nH]1; test: GTPase, malachite green Pi assay; type: biochemical, Streptococcus pneumoniae; conditions: 10 mM MgCl2, pH 7.0, 30 °C, DDM, no drug

Compound | IC50 (PatAB (PatA^WTB^WT) [1]) | IC50 (PatAB (PatA^WTB^WT) [2]) | Kd (PatAB (PatA^WTB^WT) [3]) | % reduction in EMA incorporation (PatAB (PatA^WTB^WT) [4]) | Km [5]
CO[C@@H]1[C@@H](OC(=O)c2ccc(C)[nH]2)[C@@H](O)[C@H](Oc2ccc3c(O)c(NC(=O)c4c[nH]c(C(=O)Nc5c(O)c6ccc(O[C@@H]7OC(C)(C)[C@H](OC)[C@@H](OC(=O)c8ccc(C)[nH]8)[C@H]7O)c(C)c6oc5=O)c4C)c(=O)oc3c2C)OC1(C)C [Coumermycin A1] | 3.7 ± 0.4 µM | 3 ± 1 µM |  |  | 
CC[n+]1c(-c2ccccc2)c2cc(N)ccc2c2ccc(N)cc21 [Ethidium] | 7.1 ± 1.8 µM | 6.5 ± 1.7 µM | 0.103 µM |  | 
CO[C@@H]1[C@@H](OC(N)=O)[C@@H](O)[C@H](Oc2ccc3c(O)c(NC(=O)c4ccc(O)c(CC=C(C)C)c4)c(=O)oc3c2C)OC1(C)C [Novobiocin] | 4.6 ± 1.7 µM | 9.7 ± 2 µM |  |  | 
CC[N+](C)(CC)CCC[n+]1c(-c2ccccc2)c2cc(N)ccc2c2ccc(N)cc21 [Propidium] | 0.9 ± 0.6 µM | 0.9 ± 0.8 µM |  |  | 
COc1cccc2c1C(=O)c1c(O)c3c(c(O)c1C2=O)C[C@@](O)(C(C)=O)C[C@@H]3O[C@H]1C[C@H](N)[C@H](O)[C@H](C)O1 [daunomycin] |  |  |  | 75% | 
PatAB (PatA^WTB^WT) (Streptococcus pneumoniae) |  |  |  |  | 1100 ± 400 µM
